This note sets out measurements from article PMC10023787, “Trio-pharmacophore DNA-encoded chemical library for simultaneous selection of fragments and linkers” (Nature Communications, 2023).

Read-outs that look alike come from different tables or passages of the source.

One assay concerns the target T1, MMP-2 (Homo sapiens, UniProt P08253).
T1 construct: purchased Sino Biological 10082-HNAH
T1 sequence (P08253 110-660): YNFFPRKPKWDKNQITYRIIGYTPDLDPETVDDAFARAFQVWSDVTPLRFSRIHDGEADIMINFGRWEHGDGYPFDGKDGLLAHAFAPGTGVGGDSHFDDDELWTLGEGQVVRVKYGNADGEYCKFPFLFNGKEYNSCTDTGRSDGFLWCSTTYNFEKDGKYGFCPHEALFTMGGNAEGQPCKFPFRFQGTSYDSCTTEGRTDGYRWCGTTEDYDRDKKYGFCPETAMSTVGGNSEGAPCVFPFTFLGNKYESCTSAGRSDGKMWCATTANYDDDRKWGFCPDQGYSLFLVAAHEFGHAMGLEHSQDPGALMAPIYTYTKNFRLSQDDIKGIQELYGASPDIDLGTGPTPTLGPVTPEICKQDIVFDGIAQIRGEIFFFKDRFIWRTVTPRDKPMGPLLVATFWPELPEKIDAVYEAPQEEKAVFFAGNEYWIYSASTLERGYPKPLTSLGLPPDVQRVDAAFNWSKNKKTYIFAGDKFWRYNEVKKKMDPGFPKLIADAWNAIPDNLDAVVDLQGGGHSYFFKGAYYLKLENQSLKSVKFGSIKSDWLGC
Put plainly: MMP-2 inhibition assay (fluorogenic peptide substrate). The class given is biochemical. Particulars: for IC50: mean ± SE, n.d: not detected, Fig. 5d unit inferred, µM, read-out: IC50. The essentials: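 Human proMMP-2 and proMMP-9 were activated with 1 mM APMA for 2 h at 37 °C, then used at 6.5 nM (MMP-2) or 10 nM (MMP-9) final in Tris/NaCl/CaCl2/Brij 35 buffer, pH 7.5. After 30 min preincubation with compound at RT, 25 μM FRET peptide substrate was added and fluorescence (ex 280/em 360 nm) followed for 30 min. IC50 came from logistic fits of Vmax.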

The target of another assay is T2, MMP-9 (Homo sapiens, UniProt P14780).
T2 construct: purchased Sino Biological 10327-HNAH
Description: De novo T-DEL selection against MMP-9, NGS decoding. The class given is binding. An excerpt: Matrix metalloproteinases (MMPs) are zinc-dependent endopeptidases capable of degrading and remodeling extracellular matrix components[46],[47]. They are attractive therapeutic targets as high expression levels were detected in various diseases, such as inflammatory diseases, and at different stages of cancers, including metastasis, invasion, and angiogenesis[47]–[53]. As shown in Supplementary Fig. 3c, we performed selections against the two gelatinases (human MMP-2 and human MMP-9) to identify binding fragments for later design and synthesis of small molecule inhibitors. After selection, the three sub-libraries were decoded, and the enrichment was calculated by dividing the post-selection fraction (count/total counts) by the pre-selection fraction (Fig. 4a and Supplementary Fig. 13).
4 µg of MMP-2/MMP-9 was dissolved in 100 µl of selection buffer containing 25 mM Tris-base, 10 mM CaCl2, 150 mM NaCl, 0.05% Tween 20, pH 7.5. 10 µl of 4-Aminophenylmercuric acetate (APMA) (100 mM) solution was added to the protein solution and incubated at 37 °C for 1 h. After activation, the solution was added on top of 40 µl pre-washed Ni-NTA resin and incubated for 30 min on a rotary shaker. The supernatant was discarded, and the resin was washed three times with the selection buffer.
For each independent selection, three sub-libraries were mixed in the selection buffer with a final concentration of 40 nM of each sub-library in 100 µl. The mixture was heat denatured at 90 °C for 1 min and slowly cooled down to allow the formation of the trio-pharmacophore library. The dynamic dual-pharmacophore DEL was provided by DyNAbind GmbH (Merck, DYNA001).
The assembled library was incubated with the protein-bound solid support for 2 h at RT on a rotary shaker. In parallel, selection on bare solid support served as the negative control to exclude promiscuous binders on the resin. After panning, the supernatant was discarded, and the resin was washed three times with 1 ml selection buffer. Finally, 100 µl of 50 mM Tris buffer, pH 7.4 was added to resuspend the resin and the resin was incubated at 95 °C for 5 min to denature the protein, release, and collect the bound library members.
The eluted library members were subjected to sample preparation for NGS. NGS preparation was achieved by two-step PCR. First, the individual selection was indexed using primers containing unique sequences corresponding to each selection. The amplified product was purified from 2% agarose gel. Second, the purified DNA from all selections were pooled in equal amount and subjected to the 2nd PCR step to attach sequences compatible with the NGS flow cell and the sequencing primers. NGS was performed by Novogene UK with Novaseq 6000. Raw data files (fastq files) obtained were decoded using a custom python script and excel. The sequence reads corresponding to each sample was retrieved by searching for the correct index unique to each selection. Then, the code region was extracted from each sequence and assigned to the corresponding identity. The count of each code in each selection sample was obtained by looping through the total reads and counting the occurrence of each code. The enrichment fold of each compound was calculated by first, dividing the count by the total count to get the abundance, second, the abundance after the selection was divided by the abundance of pre-selection to reflect the distribution change of the compound. Next, the enrichment fold was plotted against the count for each member of the library to give the scatter plots as in Fig. 4.

T2 sequence (P14780 107-707 limits assumed): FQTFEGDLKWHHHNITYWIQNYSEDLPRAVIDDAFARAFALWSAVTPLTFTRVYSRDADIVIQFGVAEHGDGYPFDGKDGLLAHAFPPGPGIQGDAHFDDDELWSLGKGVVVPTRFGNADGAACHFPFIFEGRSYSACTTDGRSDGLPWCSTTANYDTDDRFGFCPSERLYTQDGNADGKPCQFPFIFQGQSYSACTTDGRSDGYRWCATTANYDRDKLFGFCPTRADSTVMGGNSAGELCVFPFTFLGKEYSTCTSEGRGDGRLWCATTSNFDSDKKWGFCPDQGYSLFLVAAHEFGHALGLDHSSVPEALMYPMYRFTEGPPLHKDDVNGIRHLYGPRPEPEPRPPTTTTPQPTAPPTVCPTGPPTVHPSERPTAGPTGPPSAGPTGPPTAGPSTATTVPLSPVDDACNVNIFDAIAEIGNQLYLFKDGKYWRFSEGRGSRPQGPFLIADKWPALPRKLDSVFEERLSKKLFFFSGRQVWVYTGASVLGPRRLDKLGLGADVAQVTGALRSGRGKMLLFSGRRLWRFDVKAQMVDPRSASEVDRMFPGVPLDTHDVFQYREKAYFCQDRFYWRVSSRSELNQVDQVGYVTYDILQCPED

For the compound `Cc1cc(=O)[nH]c(-n2nc(C)c(CCC(=O)O)c2C)n1` [Compound 693], the remaining activity at 0.0156098 µM on MMP-2 (Figure 5a, fragment concentration 0.0156098 µM, read-out: Normalized activity (Mean)) amounted to 93%. Moreover, the remaining activity at 0.0780488 µM on MMP-2 (Figure 5a, fragment concentration 0.0780488 µM, read-out: Normalized activity (Mean)) turned out to be 96.4%. For the same compound, the remaining activity at 0.390244 µM on MMP-2 (Figure 5a, fragment concentration 0.390244 µM, read-out: Normalized activity (Mean)) came to 90.7%. Besides, the remaining activity at 1.95122 µM on MMP-2 (Figure 5a, fragment concentration 1.95122 µM, read-out: Normalized activity (Mean)) was determined as 92.4%. Also, the remaining activity at 9.7561 µM at MMP-2 (Figure 5a, fragment concentration 9.7561 µM, read-out: Normalized activity (Mean)) came to 83.6%. Also, at MMP-2 (Figure 5a, fragment concentration 48.7805 µM, read-out: Normalized activity (Mean)), the remaining activity at 48.7805 µM came out at 70.5%. Moreover, at MMP-2 (Figure 5a, fragment concentration 243.902 µM, read-out: Normalized activity (Mean)), the remaining activity at 243.902 µM came out at 41.9%. For the same compound, the remaining activity at 1219.51 µM on MMP-2 (Figure 5a, fragment concentration 1219.51 µM, read-out: Normalized activity (Mean)) worked out at 5.76%; on MMP-2 (MMP-2, concentration 1219.51 µM, read-out: Mean (MMP-2 dose-response, Supplementary fig 15)), 5.76%. Further, the remaining activity at 0.0156 µM on MMP-2 (MMP-2, concentration 0.0156 µM, read-out: Mean (MMP-2 dose-response, Supplementary fig 15)) came out at 93%. Also, the remaining activity at 0.08 µM at MMP-2 (MMP-2, concentration 0.08 µM, read-out: Mean (MMP-2 dose-response, Supplementary fig 15)) came to 96.3%. Moreover, the remaining activity at 0.39 µM on MMP-2 (MMP-2, concentration 0.39 µM, read-out: Mean (MMP-2 dose-response, Supplementary fig 15)) was 90.7%. Further, on MMP-2 (MMP-2, concentration 1.95 µM, read-out: Mean (MMP-2 dose-response, Supplementary fig 15)), the remaining activity at 1.95 µM was determined as 92.4%. Besides, the remaining activity at 9.75 µM at MMP-2 (MMP-2, concentration 9.75 µM, read-out: Mean (MMP-2 dose-response, Supplementary fig 15)) was 83.6%. The remaining activity at 9.76 µM on MMP-2 (MMP-2, concentration 9.76 µM, read-out: Mean (MMP-2 dose-response, Supplementary fig 15)) is 83.6%. Besides, on MMP-2 (MMP-2, concentration 48.76 µM, read-out: Mean (MMP-2 dose-response, Supplementary fig 15)), the remaining activity at 48.76 µM is 70.5%. Further, the remaining activity at 48.78 µM on MMP-2 (MMP-2, concentration 48.78 µM, read-out: Mean (MMP-2 dose-response, Supplementary fig 15)) amounted to 70.5%. Besides, at MMP-2 (MMP-2, concentration 243.80 µM, read-out: Mean (MMP-2 dose-response, Supplementary fig 15)), the remaining activity at 243.8 µM turned out to be 41.9%. The remaining activity at 243.9 µM at MMP-2 (MMP-2, concentration 243.90 µM, read-out: Mean (MMP-2 dose-response, Supplementary fig 15)) worked out at 41.9%. In addition, the inhibitory effect result at MMP-2 (in words) is recorded as “high µM range”. In addition, on MMP-2, the IC50 was found to be 169 ± 15.8 µM. Further, the “MMP9 SL-A Count” value on MMP-9 (NGS sequence count of sub-library SL-A building block, de novo T-DEL selection against MMP-9) is on record as 8460. On MMP-9 (NGS sequence count of sub-library SL-C building block, de novo T-DEL selection against MMP-9), the “MMP9 SL-C Count” value amounted to 1032. Further, the “MMP9 SL-A Enrichment Fold” value on MMP-9 (sub-library SL-A building block, de novo T-DEL selection against MMP-9) is recorded as 3.659. The “MMP9 SL-C Enrichment Fold” value at MMP-9 (sub-library SL-C building block, de novo T-DEL selection against MMP-9) is 1.167.

Consider `O=C(O)Cn1cnc2c(oc3ccccc32)c1=O` [Compound 182], for which the remaining activity at 0.0152381 µM on MMP-2 (Figure 5a, fragment concentration 0.0152381 µM, read-out: Normalized activity (Mean)) was 97.3%. On MMP-2 (Figure 5a, fragment concentration 0.0761905 µM, read-out: Normalized activity (Mean)), the remaining activity at 0.0761905 µM turned out to be 97.1%. Besides, at MMP-2 (Figure 5a, fragment concentration 0.380952 µM, read-out: Normalized activity (Mean)), the remaining activity at 0.380952 µM stood at 98.7%. The remaining activity at 1.90476 µM at MMP-2 (Figure 5a, fragment concentration 1.90476 µM, read-out: Normalized activity (Mean)) was found to be 98.1%. Further, the remaining activity at 9.52381 µM at MMP-2 (Figure 5a, fragment concentration 9.52381 µM, read-out: Normalized activity (Mean)) stood at 87.4%. The remaining activity at 47.619 µM at MMP-2 (Figure 5a, fragment concentration 47.619 µM, read-out: Normalized activity (Mean)) came out at 71.6%. Also, the remaining activity at 238.095 µM on MMP-2 (Figure 5a, fragment concentration 238.095 µM, read-out: Normalized activity (Mean)) came to 16.9%. The remaining activity at 1190.48 µM at MMP-2 (Figure 5a, fragment concentration 1190.48 µM, read-out: Normalized activity (Mean)) was 0%. The remaining activity at 0.0152 µM on MMP-2 (MMP-2, concentration 0.0152 µM, read-out: Mean (MMP-2, Supplementary fig 16)) worked out at 97.3%. The remaining activity at 0.08 µM at MMP-2 (MMP-2, concentration 0.08 µM, read-out: Mean (MMP-2, Supplementary fig 16)) is 97.1%. The remaining activity at 1.9 µM at MMP-2 (MMP-2, concentration 1.90 µM, read-out: Mean (MMP-2, Supplementary fig 16)) turned out to be 98.2%. In addition, on MMP-2 (MMP-2, concentration 9.52 µM, read-out: Mean (MMP-2, Supplementary fig 16)), the remaining activity at 9.52 µM was 87.4%. Also, the remaining activity at 47.62 µM on MMP-2 (MMP-2, concentration 47.62 µM, read-out: Mean (MMP-2, Supplementary fig 16)) was 71.6%. Moreover, the remaining activity at 238.1 µM on MMP-2 (MMP-2, concentration 238.10 µM, read-out: Mean (MMP-2, Supplementary fig 16)) is 16.9%. Moreover, the remaining activity at 0.38 µM on MMP-2 (MMP-2, concentration 0.38 µM, read-out: Mean (MMP-2, Supplementary fig 16)) was determined as 98.7%. In addition, the IC50 on MMP-2 came out at 95.8 µM. Further, the “MMP9 SL-A Count” value at MMP-9 (NGS sequence count per SL-A member, de novo T-DEL selection against MMP-9 (Figure 4a source data)) came to 5190. Moreover, the “MMP9 SL-C Count” value on MMP-9 (NGS sequence count per SL-C member, de novo T-DEL selection against MMP-9 (Figure 4a source data)) is 816. The “MMP9 SL-A Enrichment Fold” value on MMP-9 (enrichment fold per SL-A member, de novo T-DEL selection against MMP-9 (Figure 4a source data)) was 1.432. For the same compound, the “MMP9 SL-C Enrichment Fold” value on MMP-9 (enrichment fold per SL-C member, de novo T-DEL selection against MMP-9 (Figure 4a source data)) is given as 0.7692.

In general, IC50 refers to the concentration that inhibits the measured activity by half.
